# Data taken from patent US9126941B2, “Treatment of hyperproliferative disorders with diarylhydantoin compounds” (The Regents of the University of California, priority 2005, dated 2015).
# “Also recorded” adds a separate entry of the source.
# How the values were obtained:
# MCF7 = assay: Growth effect on MCF7 cells; type: cell-based; conditions: breast cancer cells
# DU-145 cells = assay: MTS growth assay, DU-145 cells; type: cell-based; conditions: prostate cancer cell line lacking AR expression
# SkBr3 = assay: Growth effect on SkBr3 cells; type: cell-based; conditions: breast cancer cells
# 3T3 = assay: Growth effect on 3T3 fibroblasts; type: cell-based; conditions: normal mouse fibroblast cell line
# LNCaP cells = assay: MTS growth assay, hormone sensitive LNCaP cells; type: cell-based
# Procedure: FIG. 10. Inhibitory effect on growth of hormone sensitive prostate cancer cells. […] After 4 days of incubation, cell growth was measured by MTS assay.
# [1] = tested on: hormone refractory LAPC4 xenograft; assay: Hormone refractory LAPC4 xenograft model; type: in vivo, mice; conditions: 1 mg per kg orally once daily, 17 days
# Procedure: FIG. 9. […] (A), tumor size was measured by caliber. (B), the tumors were taken out from the mice after 17 days of treatment, tumor lysate was extracted, and PSA level in tissue lysate was determined by ELISA.
# This model was established from passaging of hormone sensitive prostate cancer in castrated mice, which mimics the clinical progression of prostate cancer (2).
# [2] = tested on: LNCaP-AR xenograft tumors; assay: LNCaP-AR xenograft in SCID mice, tumor size and luciferase imaging (RD162); type: in vivo; conditions: for Tumor growth / tumor volume over time (FIG. 11): 10 or 50 mg/kg orally every day, 18 days; for Photon emission associated with luciferase activity (FIG. 12): day 18, 3 hours after last dose
# Procedure: FIG. 11 is a graph of tumor size. AR overexpressing LNCaP cells were injected in the flanks of castrated […] mice, subcutaneously. When tumors reached about 100 cubic mm, they were randomized into five groups. Each group had nine animals. […] The tumors were measured three-dimensionally, width, length and depth, using a caliper.
# FIG. 12 depicts experimental results of tumor size. At day 18, the animals were imaged via an optical CCD camera, 3 hours after last dose of treatment. A ROI was drawn over the tumor for luciferase activity measurement in photon/second. The right panels is a representation of the ROIs measurements.
# (A) The relative tumor volume as a function of time shown for each set of mice. (B) Images of each set of mice with photon emission associated with luciferase activity at day 31 shown as color contours. (C) Rate of photon emission associated with luciferase activity shown at several times for each set of mice.
# All animal experiments were performed in compliance with the guidelines of the Animal Research Committee of the University of California at Los Angeles. Animals were bought from Taconic and maintained in a laminar flow tower in a defined flora colony. LNCaP-AR and LNCaP-vector cells were maintained in RPMI medium supplemented with 10% FBS. 10^6 cells in 100 μl of 1:1 Matrigel to RPMI medium were injected subcutaneously into the flanks of intact or castrated male SCID mice. Tumor size was measured weekly in three dimensions (length×width×depth) using calipers. Mice were randomized to treatment groups when tumor size reached approximately 100 mm^3. Drugs were given orally every day at 10 mg/kg and 50 mg/kg. To obtain pharmacodynamic readout, the animals were imaged via an optical CCD camera, 3 hours after last dose of the treatment. A ROI is drawn over the tumor for luciferase activity measurement in photon/second. The right panels were a representation of the ROIs measurements.
# [3] = tested on: castrated luciferase transgenic mice; assay: Castrated luciferase transgenic mice with implanted testosterone pellet, urogenital tract weight and photon emission; type: in vivo; conditions: 10 mg per kg per day, 14 days
# Source text: FIG. 23 presents results of an experiment conducted with wild type nontransgenic mice (WT), castrated luciferase transgenic mice (Cast), and non-castrated luciferase transgenic mice (Intact). […] (A) Urogenital tract weight at 14 days. (B) Photon emission rate at 14 days.
# [4] = tested on: AR-overexpressed LNCaP xenograft tumors; assay: AR-overexpressed LNCaP xenograft model in castrated male SCID mice, oral once daily; type: in vivo; conditions: 1 mg per kg orally once daily, 44 days
# Procedure: FIG. 7. […] Mice with established LN-AR xenograft tumors were randomized and treated with indicated compounds orally once daily. Tumor size was measured by caliber.
# FIG. 8. […] The tumors were taken out from the mice after 44 days of treatment, tumor lysate was extracted, and PSA level in tissue lysate was determined by ELISA.
# First we examined this compound on xenograft tumors established from AR-overexpressed LNCaP cells. The engineered cells in Matrigel (Collaborative Biomedical) were injected subcutaneously into the flanks of the castrated male SCID mice. Tumor size was measured weekly in three dimensions using calipers. After xenograft tumors established (tumor size reached at least 40 mm^3), mice with tumors were randomized and treated with different doses of compounds orally once daily.
# AR [5] = molecular target: T1, AR (Homo sapiens, UniProt P10275); assay: cell-based; type: cell-based
# Procedure: The compounds were subjected to tests using an artificial AR response reporter system in a hormone refractory prostate cancer cell line. […] After two days of incubation, reporter activities were assayed.
# [6] = Pharmacokinetics in FVB mice, drug concentration by HPLC; conditions: for Css, 10 mg/kg [μM] / Css, 25 mg/kg [μM] / Css, 50 mg/kg [μM]: steady-state concentration in mice plasma
# Procedure: Mice were divided into groups of three for each time points. Two mice were not treated with drug and two other mice were treated with vehicle solution. […]
# The drug was dissolved in a mixture 1:5:14 of DMSO:PEG400:H20. (Vehicle solution) and was administered into mice through the tail vein. The animals are warmed under a heat lamp for approximately 20 minutes prior to treatment to dilate their tail vein. […] After drug administration, the animals were euthanized via CO2 inhalation at different timepoints: […], […], 2 h, 6 h, 16 h. Animals were immediately bleed after exposure to CO2 via cardiac puncture (1 ml BD syringe+27 G ⅝ needle).
# The samples for HPLC analysis were prepared according to the following procedure: • Blood cells were separated from serum by centrifugation. • To 400 μl of serum were added 80 μl of a 10 μM solution of an internal standard and 520 μl of acetonitrile. Precipitation occurred. • The mixture was vortexed for 3 minutes and then placed under ultrasound for 30 minutes. • The solid particles were filtered off or were separated by centrifugation. • The filtrate was dried under an argon flow to dryness.
# AR [7] = molecular target: T1, AR; assay: cell-based; type: cell-based; conditions: for PSA levels of LN-AR cells (FIG. 14): various doses
# Procedure: It is well established that PSA levels are indicators of AR activities in prostate cancer. […] The LNCaP-AR cells are a line of lymph node carcinoma of prostate cells transduced with a plasmid that makes express androgen receptors. […] After four days incubation, secreted PSA levels were assayed using PSA ELISA kits (American Qualex, San Clemente, Calif.)
# L1AR cell line = assay: Luciferase activity of the L1AR cell line; type: cell-based; conditions: at a given concentration, 125 nmol to 1000 nmol
# [8] = Ranking of compounds in tiers for utility in treating prostate cancer; conditions: assay not specified
# Source text: The placement of compounds into tiers was based on available data coupled with analytical judgment. Data considered included in vitro assays (AR response reporter system in LNCaP cell line, PSA level measurement, MTS mitochondrial assay) and in vivo experiments (tumor size measured directly or by emission induced by luciferase reporter gene, pharmacokinetic assays based on blood plasma levels). Not every compound was subjected to each assay. […] Judgment was applied in ranking compounds relative to each other for their utility in treating prostate cancer, in particular when ranking two compounds for which the same experiments were not performed. Characteristics considered in establishing the ranking include AR antagonism activity, lack of AR agonism in hormone refractory cells, prevention of tumor growth, tumor shrinkage, and pharmacokinetic behavior, with a longer residence time in blood being advantageous.
# [9] = 10 mg per kg per day, LN-AR (HR) in SCID mice
# T1 sequence (P10275 whole entry, looked up): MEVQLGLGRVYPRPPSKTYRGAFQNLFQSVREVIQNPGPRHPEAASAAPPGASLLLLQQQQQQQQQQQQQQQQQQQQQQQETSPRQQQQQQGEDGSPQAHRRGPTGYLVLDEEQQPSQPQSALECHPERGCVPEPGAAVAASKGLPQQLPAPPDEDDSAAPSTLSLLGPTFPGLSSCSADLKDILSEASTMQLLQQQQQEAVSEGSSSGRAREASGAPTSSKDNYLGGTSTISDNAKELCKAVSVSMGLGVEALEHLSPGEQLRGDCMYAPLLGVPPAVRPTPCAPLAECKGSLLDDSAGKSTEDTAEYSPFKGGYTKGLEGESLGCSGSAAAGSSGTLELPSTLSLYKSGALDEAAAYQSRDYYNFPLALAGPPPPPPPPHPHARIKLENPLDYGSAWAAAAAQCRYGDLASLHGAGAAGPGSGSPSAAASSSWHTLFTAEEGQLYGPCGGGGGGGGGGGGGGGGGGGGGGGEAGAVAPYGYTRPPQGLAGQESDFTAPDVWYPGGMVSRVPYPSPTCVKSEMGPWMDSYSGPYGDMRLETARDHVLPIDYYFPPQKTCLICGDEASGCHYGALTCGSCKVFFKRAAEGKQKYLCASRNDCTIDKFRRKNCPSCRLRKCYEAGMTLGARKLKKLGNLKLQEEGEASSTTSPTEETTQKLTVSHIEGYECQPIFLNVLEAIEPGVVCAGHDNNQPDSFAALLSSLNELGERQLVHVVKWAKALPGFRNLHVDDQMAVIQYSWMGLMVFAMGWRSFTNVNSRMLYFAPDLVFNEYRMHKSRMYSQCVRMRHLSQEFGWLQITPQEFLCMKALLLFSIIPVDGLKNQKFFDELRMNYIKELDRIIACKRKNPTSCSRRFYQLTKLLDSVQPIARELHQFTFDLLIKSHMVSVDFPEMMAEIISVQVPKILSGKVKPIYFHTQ
smiles,measurement,setting,value
"Cc1ccc(N2C(=S)N(c3ccc(C#N)c(C(F)(F)F)c3)C(=O)C2(C)C)cc1 [RD7, 4-[3-(4-methylphenyl)-4,4-dimethyl-5-oxo-2-thioxoimidazolidin-1-yl]-2-trifluoromethyl-benzonitrile]",Growth effect on MCF7,MCF7,no growth effect
same,Growth inhibitory effect on DU-145 cells,DU-145 cells,no growth inhibitory effect
same,Growth effect on SkBr3,SkBr3,no growth effect
same,Growth effect on 3T3,3T3,no growth effect
same,Potency relative to bicalutamide on hormone sensitive prostate cancer cells,"LNCaP cells; FIG. 10, MTS",10 fold
"CC(O)(CS(=O)(=O)c1ccc(F)cc1)C(=O)Nc1ccc(C#N)c(C(F)(F)F)c1 (stereo not shown) [Bicalutamide, N-[4-cyano-3-(trifluoromethyl)phenyl]-3-[(4-fluorophenyl)sulfonyl]-2-hydroxy-2-methylpropanamide, reference compound]",Growth of hormone refractory LAPC4 xenograft (FIG. 9a),[1],did not inhibit
same,PSA expression in hormone refractory LAPC4 xenograft (FIG. 9b),[1],did not inhibit
same,Tumor growth / tumor volume over time (FIG. 11),[2],tumors continued to grow
same,Photon emission associated with luciferase activity (FIG. 12),[2],remained about the same or increased
same,Photon emission associated with luciferase activity (FIG. 23),[3],decrease
same,Urogenital tract weight (FIG. 23),[3],decrease
same,Growth of LNCaP-AR xenograft tumors (FIG. 7a),[4],did not inhibit growth
same,Inhibition of hormone sensitive LNCaP cell growth (MTS),LNCaP cells; dose-dependent,mildly inhibited
"CNC(=O)c1ccc(N2C(=S)N(c3ccc(C#N)c(C(F)(F)F)c3)C(=O)C23CCC3)cc1F [RD162, N-methyl-4-[7-(4-cyano-3-trifluoromethylphenyl)-8-oxo-6-thioxo-5,7-diaza-spiro[3.4]oct-5-yl]-2-fluorobenzamide]",Luciferase activity in LNCaP-AR cells (FIG. 3),AR [5],acted to reduce luciferase activity
same,"Css, 10 mg/kg [μM]",[6],9.9 µM
same,"Css, 25 mg/kg [μM]",[6],10.7 µM
same,"Css, 50 mg/kg [μM]",[6],10.2 µM
same,"Tumor volume, 1 mg per kg body weight per day (FIG. 18)",[2]; 1 mg per kg per day,the rate of tumor increase decreased
same,"Tumor volume, 10 mg per kg body weight per day (FIG. 18)",[2]; 10 mg per kg per day,tumor size decreased with time
same,Photon emission associated with luciferase activity (FIG. 20),[2]; [9],decrease in photon emission
same,Tumor size (FIG. 20),[2]; [9],decrease or stabilization of tumor size
same,Photon emission associated with luciferase activity (FIG. 19),"[2]; 10 mg per kg per day, day 17 relative to day 0",decreased
same,Tumor growth / tumor volume over time (FIG. 11),[2],effective to prevent tumor growth and even to cause tumor shrinkage; also recorded: tumors decreased in size
same,Photon emission associated with luciferase activity (FIG. 12),[2],decreased
same,PSA levels of LN-AR cells (FIG. 21),"AR [7]; doses of 100, 200, 500 and 1000 nM",decreased
same,PSA levels of LN-AR cells (FIG. 14),AR [7],PSA levels decreased
same,"Luciferase activity, L1AR cell line (FIG. 24)",L1AR cell line,less than the luciferase activity upon exposure to RD149
same,Photon emission associated with luciferase activity (FIG. 23),[3],decrease
same,Urogenital tract weight (FIG. 23),[3],decrease
"CNC(=O)CCCc1ccc(N2C(=S)N(c3ccc(C#N)c(C(F)(F)F)c3)C(=O)C23CCC3)cc1 [RD131, 4-{4-[7-(4-Cyano-3-trifluoromethylphenyl)-8-oxo-6-thioxo-5,7-diaza-spiro[3.4]oct-5-yl]phenyl}-N-methyl-butyramide]","Activity (words, overall)",[8],particularly advantageous
same,IC50,AR [5],92 nM
same,IC50 compared with bicalutamide (FIG. 15),AR [5]; assay not specified,much lower than the IC50 for bicalutamide
same,"Pharmacokinetic behavior, residence time in blood",[6]; mice,metabolize fast
same,"Css, 10 mg/kg [μM]",[6],0.39 µM
same,"Css, 25 mg/kg [μM]",[6],0.43 µM
same,"Css, 50 mg/kg [μM]",[6],0.40 µM
same,"Rank order, most active to least active, relative PSA level (FIG. 4)",AR [7]; 500 nM,RD138>RD131>RD37>RD133>RD134>RD137>RD138>RD135>bicalutamide
same,"Decrease in PSA level of LNCaP-AR cells, comparison (FIG. 4)",AR [7]; at concentrations of 1000 nM,"greater decrease in PSA level of LNCaP-AR cells than RD133, RD134, and RD138"
same,"PSA level, LN/AR cell line, comparison",AR [7]; for a given dose / concentration,less than the PSA level upon exposure to RD128 and RD129
same,PSA levels of LN-AR cells (FIG. 14),AR [7],PSA levels decreased
"CNC(=O)c1ccc(N2C(=S)N(c3ccc(C#N)c(C(F)(F)F)c3)C(=O)C23CCC3)cc1 [RD161, N-methyl-4-[7-(4-cyano-3-trifluoromethylphenyl)-8-oxo-6-thioxo-5,7-diazaspiro[3.4]oct-5-yl]benzamide]",Luciferase activity in LNCaP-AR cells (FIG. 3),AR [5],acted to reduce luciferase activity
same,"Rank order, most active to least active, relative luciferase activity (FIG. 3)",AR [5]; 500 nM,RD152>RD153>RD145>RD163>RD161=RD162>bicalutamide
same,"Luciferase activity, L1AR cell line (FIG. 24)",L1AR cell line,less than the luciferase activity upon exposure to RD149
